Laboratory results: US20090131356A1, “miR-15, miR-26, miR-31, miR-145, miR-147, miR-188, miR-215, miR-216, miR-331, mmu-miR-292-3P REGULATED GENES AND PATHWAYS AS TARGETS FOR THERAPEUTIC INTERVENTION” (ASURAGEN, INC., priority 2006, published 2009)

Test system: Du145 human prostate cancer cells
Experiment: Long-term growth curve with repeated electroporation, Du145
Assay type: cell-based
Details: 1.6 μM miRNA electroporated, repeated on days 7 and 14, day 20
Method: The inventors assessed the therapeutic effect of hsa-miR-15a for prostate cancer by using the Du145 human prostate cancer cell line, derived from a brain metastasis (Stone et al., 1978). The inventors conducted growth curve experiments in the presence of miRNA for up to 20 days. Since in vitro transfections of naked interfering RNAs, such as synthetic miRNA, are transient by nature and compromised by the dilution of the miRNA during ongoing cell divisions, miRNA was administered at multiple time points (Bartlett et al., 2006; Bartlett et al., 2007). To accommodate miRNA delivery into a large quantity of cells, the inventors employed the electroporation method for delivery of hsa-miR-15a or negative control miRNA into Du145 human prostate cancer cells. Briefly, 0.5×10^6 Du145 cells were electroporated with 1.6 μM hsa-miR-15a or negative control using the BioRad Gene Pulser Xcell™ instrument (BioRad Laboratories Inc., Hercules, Calif., USA), seeded and propagated in regular growth medium. Experiments were carried out in triplicates. When the control cells reached confluence (days 7 and 14), cells were harvested, counted and electroporated again with the respective miRNAs. To ensure similar treatment of both conditions as well as to accommodate exponential growth, the cell numbers used for the second and third electroporation were titrated down to the lowest count. The population doubling was calculated from these electroporation events using the formula PD=ln(Nf/N0)/ln2 and adjusting for the fact that approximately 72% of newly seeded cells adhere to the plate. Cell counts were extrapolated and plotted on a linear scale (FIG. 10). Arrows represent electroporation days. Standard deviations are included in the graphs.
To evaluate the therapeutic activity of hsa-miR-147 over an extended period of time, the inventors conducted growth curve experiments in the presence of miRNA for up to 21 days. Since in vitro transfections of naked interfering RNAs, such as synthetic miRNA, are transient by nature and compromised by the dilution of the oligo during ongoing cell divisions, miRNA was administered at multiple time points (Bartlett et al., 2006; Bartlett et al., 2007). To accommodate miRNA delivery into a large quantity of cells, the inventors employed the electroporation method to delivery hsa-miR-147 or negative control miRNA into PC3 and Du145 human prostate cancer cells. […] When the control cells reached confluence (days 7 and 14), cells were harvested, counted and electroporated again with the respective miRNAs. […] The population doubling was calculated from these electroporation events using the formula PD=ln(Nf/N0)/ln2 and adjusting for the fact that approximately 72% of newly seeded cells adhere to the plate. […]

hsa-miR-15a: Synthetic pre-miR-15a (Ambion); mature sequence UAGCAGCACAUAAUGGUUUGUG, MIMAT0000068, SEQ ID NO:1 (synthetic pre-miR (Ambion), chemistry not given here; listed as Homo sapiens)
cells relative to cells electroporated with negative control miRNA: 11.8%
inhibition of Du145 cell growth (relative to proliferation of control cells (100%)): 88.2%
